Experimental findings from patent EP4772510A2, “BENZAZEPINONE COMPOUND AND USE THEREOF” (HANGZHOU BIO-SINCERITY PHARMA-TECHCO., LTD., priority 2023, dated 2025) are described below.

This assay relates to U937 cells. The assay is described as follows: Inhibition of TNF-α-induced necroptosis of U937 cells (CCK-8 assay). The assay is classed as cell-based, human. Particulars: 18 h. An outline of the steps: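 U937 cells (3.6 × 10^4/well) rested 6 h, then exposed to TNF-α 20 ng/mL, BV6 2 µM and Z-VAD-FMK 20 µM plus compound (8-point 3-fold series, 1000–0.46 nM, duplicate) for 18 h. Viability by CCK-8, absorbance at 450 nm after 2-4 h at 37 °C; EC50 calculated.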

[1] abbreviates: TNF-α 20 ng/mL + BV6 2 µM + Z-VAD-FMK 20 µM.
The mark [2] stands for this setting: Homo sapiens, U-937, TNF-α 20 ng/mL + BV6 2 µM + Z-VAD-FMK 20 µM.

As to `O=C(NC1CCc2cc(C#Cc3cnn(C(F)F)c3)cc3c2N(CC3)C1=O)c1ncn(Cc2c(F)cccc2F)n1` (stereo not drawn) [III-17, 1-(2,6-difluorobenzyl)-N-(9-((1-(difluoromethyl)-1H-pyrazol-4-yl)ethynyl)-4-oxo-1,2,3,4,6,7-hexahydroazepino[3,2,1-hi]indol-3-yl)-1H-1,2,4-triazole-3-carboxamide], the EC50 (usually the concentration needed to bring the measured effect to its halfway point) under setting [1] is less than 5 nM. Turning to `C#Cc1cc2c3c(c1)CCN3C(=O)C(NC(=O)c1ncn(Cc3c(F)cccc3F)n1)CC2` (stereo not drawn) [III-26, 1-(2,6-difluorobenzyl)-N-(9-ethynyl-4-oxo-1,2,3,4,6,7-hexahydroazepino[3,2,1-hi]indol-3-yl)-1H-1,2,4-triazole-3-carboxamide], under setting [2], the concentration for a half-maximal effect (EC50) was less than 5 nM. On the same count and under the same terms, as for `Cn1cc(C#Cc2cc3c4c(c2)CCN4C(=O)C(NC(=O)c2ncn(Cc4ccc(F)c(F)c4)n2)CC3)cn1` (stereo not drawn) [III-12, 1-(3,4-difluorobenzyl)-N-(9-((1-methyl-1H-pyrazol-4-yl)ethynyl)-4-oxo-1,2,3,4,6,7-hexahydroazepino[3,2,1-hi]indol-3-yl)-1H-1,2,4-triazole-3-carboxamide], the figure is 5 to 10 nM. In the case of “N-(9-((1-(difluoromethyl)-1H-pyrazol-4-yl)ethynyl)-4-oxo-1,2,3,4,6,7-hexahydroazepino[3,2,1-hi]indol-3-yl)-1-(4-methylbenzyl)-1H-1,2,4-triazole-3-carboxamide [III-25]”, the EC50 under setting [1] lay within 10 to 100 nM. For `Cn1cc(C#Cc2cc3c4c(c2)CCN4C(=O)C(NC(=O)c2ncn(Cc4c(F)cccc4F)n2)CC3)cn1` (stereo not drawn) [III-1, 1-(2,6-difluorobenzyl)-N-(9-((1-methyl-1H-pyrazol-4-yl)ethynyl)-4-oxo-1,2,3,4,6,7-hexahydroazepino[3,2,1-hi]indol-3-yl)-1H-1,2,4-triazole-3-carboxamide], the EC50 under setting [2] was less than 5 nM. Still for that read-out and setting: under `Cn1cc(C#Cc2cc3c4c(c2)CCN4C(=O)C(NC(=O)c2ncn(Cc4cc(F)ccc4F)n2)CC3)cn1` (stereo not drawn) [III-10, 1-(2,5-difluorobenzyl)-N-(9-((1-methyl-1H-pyrazol-4-yl)ethynyl)-4-oxo-1,2,3,4,6,7-hexahydroazepino[3,2,1-hi]indol-3-yl)-1H-1,2,4-triazole-3-carboxamide] stands less than 5 nM. On to `CN1C(=O)[C@@H](NC(=O)c2nnc(Cc3ccccc3)[nH]2)COc2ccccc21` [GSK2982772, (S)-5-benzyl-N-(5-methyl-4-oxo-2,3,4,5-tetrahydrobenzo[b][1,4]oxazepin-3-yl)-4H-1,2,4-triazole-3-carboxamide, reference compound], for which, under setting [2], the EC50 fell in the range of 10 to 100 nM.

In the case of `O=C(NC1CCc2cc(C#Cc3cnn(C(F)F)c3)cc3c2N(CC3)C1=O)c1ncn(Cc2cc(F)ccc2F)n1` (stereo not drawn) [III-19, 1-(2,5-difluorobenzyl)-N-(9-((1-(difluoromethyl)-1H-pyrazol-4-yl)ethynyl)-4-oxo-1,2,3,4,6,7-hexahydroazepino[3,2,1-hi]indol-3-yl)-1H-1,2,4-triazole-3-carboxamide], under setting [2], the concentration giving a half-maximal response (EC50) lay in the range of 5 to 10 nM.

Turning to `O=C(NC1CCc2cc(C#Cc3cnn(C(F)F)c3)cc3c2N(CC3)C1=O)c1ncn(Cc2ccccc2F)n1` (stereo not drawn) [III-21, N-(9-((1-(difluoromethyl)-1H-pyrazol-4-yl)ethynyl)-4-oxo-1,2,3,4,6,7-hexahydroazepino[3,2,1-hi]indol-3-yl)-1-(2-fluorobenzyl)-1H-1,2,4-triazole-3-carboxamide], the EC50 under setting [2] is less than 5 nM.
